Laboratory results taken from patent publication US10221163B2 (priority 2015, dated 2019).
Like-named read-outs stand apart in the source and are kept apart here.

Key:
[1] = tested on: Pseudomonas aeruginosa efflux− (MB9799), IMP-1; type: cell-based; details: concentration restoring susceptibility to imipenem at 2 μg/mL in the presence of a class A, C, D serine β-lactamase inhibitor closely related to relebactam
Method in brief: (§1)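 P. aeruginosa PAO1-derived IMP-1 strains, efflux+ MB9798 and efflux− MB9799, tested by standard microbroth MIC with imipenem and/or ceftazidime fixed, usually at CLSI breakpoint, plus fixed class A/C β-lactamase inhibitor against AmpC. Inhibitor titrated; concentration restoring susceptibility recorded; MB9798/MB9799 fold difference indicates efflux.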

[2] = tested on: Pseudomonas aeruginosa MB9798 vs MB9799; details: ratio MITC95 PA_9798/MITC95 PA_9799
Method in brief: as §1

[3] = tested on: Pseudomonas aeruginosa efflux+ (MB9798), IMP-1; type: cell-based; details: concentration restoring susceptibility to imipenem at 2 μg/mL in the presence of a class A, C, D serine β-lactamase inhibitor closely related to relebactam
Method in brief: as §1

VIM-1 = VIM-1 (Pseudomonas aeruginosa (strain ATCC 15692 / DSM 22644 / CIP 104116 / JCM 14847 / LMG 12228 / 1C / PRS 101 / PAO1), UniProt A0A0F7KYQ8); test: biochemical; details: CCF2-FA substrate, 30 pM enzyme, 2 hours at 25° C.
Method in brief: (§2)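 Test compound, enzyme and the FRET cephalosporin substrate CCF2-FA are incubated together for 2 hours at 25° C. Cleavage is followed by fluorescence, and IC50 values are derived from semi-logarithmic inhibition curves fitted with a 4-parameter model.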

IMP-1 = IMP-1 (Serratia marcescens, UniProt P52699); test: biochemical; type: biochemical; details: fluorescence assay, CCF2-FA substrate, 2 pM enzyme, 2 hours at 25° C.; read-out: IMP-1 IC50
Method in brief: as §2

NDM-1 = NDM-1 (Klebsiella pneumoniae, UniProt C7C422); test: biochemical; type: biochemical; details: fluorescence assay, CCF2-FA substrate, 1 pM enzyme, 2 hours at 25° C.; read-out: NDM-1 IC50
Method in brief: as §2

[4] = tested on: Klebsiella pneumoniae expressing VIM-1 (IHMA599644); type: cell-based; details: with imipenem 1 μg/ml; 95% inhibition of bacterial growth
Method in brief: (§3)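 Clinical strains grown overnight on blood agar at 35°C, colonies suspended in saline, diluted 1:100 into 1.1×CAMHB. Test compound titrated with imipenem at 1 μg/ml; incubated 22–24 h at 35°C, growth read by absorbance.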

[5] = tested on: Serratia marcescens expressing IMP-1 (CL5741); type: cell-based; details: with imipenem 1 μg/ml; 95% inhibition of bacterial growth
Method in brief: as §3

[6] = tested on: Escherichia coli expressing NDM-1 (CLB30005, CLB30016); type: cell-based; details: with imipenem 1 μg/ml; 95% inhibition of bacterial growth
Method in brief: as §3

[7] = fluorescence assay, read-out: VIM-1 IC50

IMP-1, sequence (P52699 whole entry, looked up, species assumed): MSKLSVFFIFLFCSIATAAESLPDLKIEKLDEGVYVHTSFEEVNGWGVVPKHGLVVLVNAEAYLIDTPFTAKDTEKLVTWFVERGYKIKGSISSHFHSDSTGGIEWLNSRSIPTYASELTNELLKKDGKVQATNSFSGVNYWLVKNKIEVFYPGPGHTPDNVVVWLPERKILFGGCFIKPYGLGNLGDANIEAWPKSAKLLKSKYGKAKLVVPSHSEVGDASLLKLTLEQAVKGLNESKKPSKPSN
NDM-1, sequence (C7C422 whole entry, looked up, species assumed): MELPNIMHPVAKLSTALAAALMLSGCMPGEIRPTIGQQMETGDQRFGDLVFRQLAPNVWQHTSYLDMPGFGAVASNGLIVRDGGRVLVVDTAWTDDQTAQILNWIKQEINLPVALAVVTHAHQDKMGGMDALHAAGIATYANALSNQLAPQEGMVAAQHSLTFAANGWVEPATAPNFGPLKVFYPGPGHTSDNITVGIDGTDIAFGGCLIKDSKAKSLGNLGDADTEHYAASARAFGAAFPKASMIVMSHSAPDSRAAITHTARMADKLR

SMILES	P. aeruginosa expressing IMP-1, efflux − (MB9799) MITC95 [1]	Efflux ratio [2]	P. aeruginosa expressing IMP-1, efflux + (MB9798) MITC95 [3]	IC50 (VIM-1; VIM-1 IC50, fluorescence assay)	IC50 (IMP-1)	IC50 (NDM-1)	Klebsiella pneumoniae expressing VIM-1 (IHMA599644) MITC95 [4]	Serratia marcescens expressing IMP-1 (CL5741) MITC95 [5]	Escherichia coli expressing NDM-1 (CLB30016) MITC95 [6]	IC50 (VIM-1; [7])
Nc1nc2c(-c3ccc(S(=O)(=O)N[C@H]4CNC[C@H]4O)c(S(N)(=O)=O)c3-c3nnn[nH]3)cccc2[nH]1 [Example 168, 4-(2-amino-1H-benzo[d]imidazol-4-yl)-N^1-((3S,4R)-4-hydroxypyrrolidin-3-yl)-3-(1H-tetrazol-5-yl)benzene-1,2-disulfonamide]	0.543 µM	0.70	0.3828 µM	160 pM	544 pM	51.5 pM	0.8906 µM	0.668 µM	0.375 µM	–
Nc1nc2c(-c3ccc(S(=O)(=O)N[C@H]4CNC[C@@H]4O)c(S(N)(=O)=O)c3-c3nnn[nH]3)cccc2[nH]1 [Example 169, 4-(2-amino-1H-benzo[d]imidazol-4-yl)-N^1-((3S,4S)-4-hydroxypyrrolidin-3-yl)-3-(1H-tetrazol-5-yl)benzene-1,2-disulfonamide]	1.563 µM	1.00	1.563 µM	580 pM	2080 pM	137 pM	3.125 µM	1.563 µM	0.7813 µM	–
Nc1nc2c(-c3ccc(S(=O)(=O)N[C@@H]4CNC[C@@H]4O)c(S(N)(=O)=O)c3-c3nnn[nH]3)cccc2[nH]1 [Example 170, 4-(2-amino-1H-benzo[d]imidazol-4-yl)-N^1-((3R,4S)-4-hydroxypyrrolidin-3-yl)-3-(1H-tetrazol-5-yl)benzene-1,2-disulfonamide]	0.7813 µM	1.00	0.7813 µM	256 pM	1120 pM	80.3 pM	1.563 µM	0.7813 µM	0.7813 µM	–
Nc1nc2c(-c3ccc(S(=O)(=O)N[C@@H]4CNC[C@H]4O)c(S(N)(=O)=O)c3-c3nnn[nH]3)cccc2[nH]1 [Example 171, 4-(2-amino-1H-benzo[d]imidazol-4-yl)-N^1-((3R,4R)-4-hydroxypyrrolidin-3-yl)-3-(1H-tetrazol-5-yl)benzene-1,2-disulfonamide]	1.563 µM	0.50	0.7813 µM	506 pM	1390 pM	125 pM	3.125 µM	1.563 µM	0.7813 µM	–
Nc1nc2c(-c3ccc(S(=O)(=O)N[C@H]4CN[C@H](CO)C4)c(S(N)(=O)=O)c3-c3nnn[nH]3)cccc2[nH]1 [Example 172, 4-(2-amino-1H-benzo[d]imidazol-4-yl)-N^1-((3R,5S)-5-(hydroxymethyl)pyrrolidin-3-yl)-3-(1H-tetrazol-5-yl)benzene-1,2-disulfonamide]	0.7813 µM	0.50	0.3906 µM	159 pM	509 pM	50 pM	1.563 µM	0.7813 µM	0.5859 µM	–
Nc1nc2c(-c3ccc(S(=O)(=O)N[C@H]4CN[C@@H](CO)C4)c(S(N)(=O)=O)c3-c3nnn[nH]3)cccc2[nH]1 [Example 173, 4-(2-amino-1H-benzo[d]imidazol-4-yl)-N^1-((3R,5R)-5-(hydroxymethyl)pyrrolidin-3-yl)-3-(1H-tetrazol-5-yl)benzene-1,2-disulfonamide]	1.563 µM	1.00	1.563 µM	284 pM	934 pM	94.8 pM	3.125 µM	0.7813 µM	0.7813 µM	–
Nc1nc2c(-c3ccc(S(=O)(=O)N[C@@H]4CN[C@@H](CO)C4)c(S(N)(=O)=O)c3-c3nnn[nH]3)cccc2[nH]1 [Example 174, 4-(2-amino-1H-benzo[d]imidazol-4-yl)-N^1-((3S,5R)-5-(hydroxymethyl)pyrrolidin-3-yl)-3-(1H-tetrazol-5-yl)benzene-1,2-disulfonamide]	1.563 µM	1.00	1.563 µM	390 pM	1660 pM	117 pM	3.125 µM	1.563 µM	3.125 µM	–
Nc1nc2c(-c3ccc(S(=O)(=O)N[C@@H]4CN[C@H](CO)C4)c(S(N)(=O)=O)c3-c3nnn[nH]3)cccc2[nH]1 [Example 175, 4-(2-amino-1H-benzo[d]imidazol-4-yl)-N^1-((3S,5S)-5-(hydroxymethyl)pyrrolidin-3-yl)-3-(1H-tetrazol-5-yl)benzene-1,2-disulfonamide]	1.563 µM	0.50	0.7813 µM	334 pM	1000 pM	127 pM	3.125 µM	1.563 µM	0.7813 µM	–
Nc1nc2c(-c3ccc(S(=O)(=O)N[C@@]4(CO)CCNC4)c(S(N)(=O)=O)c3-c3nnn[nH]3)cccc2[nH]1 [Example 176, (S)-4-(2-amino-1H-benzo[d]imidazol-4-yl)-N1-(3-(hydroxymethyl)pyrrolidin-3-yl)-3-(1H-tetrazol-5-yl)benzene-1,2-disulfonamide]	0.7813 µM	1.00	0.7813 µM	–	728 pM	52.4 pM	1.563 µM	0.7813 µM	0.3906 µM	192 pM
Nc1nc2c(-c3ccc(S(=O)(=O)N[C@]4(CO)CCNC4)c(S(N)(=O)=O)c3-c3nnn[nH]3)cccc2[nH]1 [Example 177, (R)-4-(2-amino-1H-benzo[d]imidazol-4-yl)-N1-(3-(hydroxymethyl)pyrrolidin-3-yl)-3-(1H-tetrazol-5-yl)benzene-1,2-disulfonamide]	1.563 µM	0.50	0.7813 µM	–	862 pM	66.9 pM	1.563 µM	1.563 µM	0.7813 µM	246 pM
Nc1nc2c(-c3ccc(S(=O)(=O)N[C@@H]4CCCNC4)c(S(N)(=O)=O)c3-c3nnn[nH]3)cccc2[nH]1 [Example 178, (R)-4-(2-amino-1H-benzo[d]imidazol-4-yl)-N^1-(piperidin-3-yl)-3-(1H-tetrazol-5-yl)benzene-1,2-disulfonamide]	1.563 µM	1.00	1.563 µM	–	870 pM	64 pM	3.125 µM	1.563 µM	1.563 µM	266 pM
Nc1nc2c(-c3ccc(S(=O)(=O)N[C@H]4CCCNC4)c(S(N)(=O)=O)c3-c3nnn[nH]3)cccc2[nH]1 [Example 179, (S)-4-(2-amino-1H-benzo[d]imidazol-4-yl)-N^1-(piperidin-3-yl)-3-(1H-tetrazol-5-yl)benzene-1,2-disulfonamide]	1.563 µM	2.00	3.125 µM	–	3000 pM	219 pM	3.125 µM	3.125 µM	1.563 µM	904 pM
